Laboratory results as given in US20180051301A1, “INDUCTION OF PACEMAKER-LIKE CELLS FROM CARDIOMYOCYTES” (WASHINGTON UNIVERSITY, priority 2015, published 2018).

What was measured:
Assay type in all cases: cell-based
[1] = test system: failing slices (left ventricular free wall of failing hearts); experiment: Optical mapping of acute drug response in failing human heart slices; details: isoproterenol, baseline 0.47±0.008
Procedure: Adult human hearts were procured either as failing human hearts from Barnes-Jewish Hospital or donor human hearts from Mid-America transplant services. Explanted hearts were cardioplegically arrested via high potassium solution (in mmol/L: NaCl 110, CaCl2 1.2, KCl 16, MgCl2 16, NaHCO3 10) and were cooled to approximately 4° C. in the operating room following aortic cross-clamp. Failing hearts were perfused through both coronaries, while donor hearts were perfused systemically prior to removal from body. The heart was maintained at this low temperature to preserve tissue during the 15-20 minute transportation time from the operating room to the research laboratory.
(§1) Ventricular slices were electrophysiologically studied with optical mapping technique. […] Transmembrane potential (Vm) was measured using di4-ANEEPS and RH237 (Life Technologies). Intracellular calcium was measured using Rhod-2AM (Life Technologies). […]
(§2) Activation map was plotted via calculating activation time points at 50% of action potential upstroke amplitude. Action potential and calcium transient duration was calculated at 80% repolarization/relaxation. When slices were field-paced, conduction velocity could not be quantified via traditional longitudinal and transverse direction. During point pacing conduction velocity was calculated using a semi-automated Matlab function ORCA. […]

[2] = test system: Donor left ventricular slices; experiment: Optical mapping of acute drug response in donor human left ventricular slices; details: donor left ventricular slices paced at 1 Hz; β-adrenergic stimulation with isoproterenol (100 nM); ±S.D.; baseline 0.67±0.03
Procedure: After arrival, an approximately one-inch cube of left ventricular tissue or right atrial tissue was cut in cardioplegic solution. Left ventricular tissue was taken from a region close to left anterior descending artery and circumflex artery. Atrial tissue was taken from crista terminalis below sinoatrial node region. Premade 4% agarose gel cooled at 4° C. was glued on to the tissue holder of a high precision vibrating microtome (7000 smz-2, Campden Instruments Ltd. UK). The tissue block was then mounted endocardium up on the agarose. […] Slices were cut tangential to the endocardium. […]
as §1
as §2, with “ORCA. Effective refractory period was measured using S1-S1 pacing protocol until 1:1 capture was lost.” for “ORCA.”

[3] = test system: human ventricular slices (α1-adrenergic receptor stimulation); experiment: Chronic drug model: acute versus chronic phenylephrine in cultured human ventricular slices, optical mapping; details: for effect on AP duration (APD): 1 Hz (60 BPM) pacing
Procedure: Non-failing donor hearts that were rejected for transplantation were cardioplegically arrested and cooled in the operating room following the same procedure accepted for heart transplantation. Cardiac tissue that was promptly delivered to the research laboratory, where it was sliced tangential to the endocardium using a high precision (1 μm) vibrating microtome, transferred to a custom-designed incubation apparatus, and cultured at a liquid-air interface in 6-well culture plates using Transwell inserts. Slices were cultured in M-199 supplemented with 1×ITS (Insulin, Transferrin, Selenium), 10 mM 2,3-butanedione monoxime, and 2% penicillin-streptomycin in a 37° C. incubator with humidified air with 5% CO2. Culture medium was changed daily. Vital tissue slices from adult myocardium prepared in this manner have previously been cultured for up to 28 days with high cellular viability and maintenance of expression of the major ion channels and action potential characteristics.
Slices were cultured in medium 199 supplemented with 2% penicillin-streptomycin, 1×ITS (Insulin, Transferrin, Selenium) liquid media supplement, and 10 mM 2,3-butanedione monoxime. Slices were individually washed in sterile PBS solution 6 times before placing in culture. Sterile forceps were used to handle slices at all time. […]
After a 24 hour culture period, slices' electrophysiology was measured with optical mapping to examine potential functional changes occurred during culture. […]
Utilizing cultured slices and adult dosage of phenylephrine, a widely used selective α1-adrenergic receptor agonist, a model to study chronic drug effects in human cardiac slices was developed. Slice electrophysiology was first acutely measured using optical mapping after application of 3 μM phenylephrine. […]
Slices were cultured in a tissue incubator for 24 hours. Control cultured slices were measured before and after phenylephrine application similar to acute slices, slices cultured in drug media were measured separately. […] Only transverse conduction velocity could be measured accurately due to the small size of the tissue.
Activation map was plotted via calculating activation time points at 50% of action potential upstroke amplitude. Action potential and calcium transient duration was calculated at 80% repolarization/relaxation. When slices were field-paced, conduction velocity could not be quantified via traditional longitudinal and transverse direction. During point pacing conduction velocity was calculated using a semi-automated Matlab function ORCA. Effective refractory period was measured using S1-S1 pacing protocol until 1:1 capture was lost. Action potential and calcium transient were recorded at cycle lengths from 2000 ms to 200 ms.

SMILES	conduction velocity (CV) [1]	conduction velocity (CV) [2]	effect on AP restitution curve ([3]; acute (15 minutes) 3 μM, at baseline as well as after one day in culture)	effect on AP duration (APD) ([3]; acute treatment at baseline and after one day in culture)	effect on AP restitution curve ([3]; chronic (24 hours) 3 μM)	effect on AP duration (APD) ([3]; chronic treatment (24 hours))
CC(C)NCC(O)c1ccc(O)c(O)c1 (stereo not drawn) [isoproterenol]	0.54±0.006 m/s	0.84±0.03 m/s				
CNC[C@H](O)c1cccc(O)c1 [phenylephrine]			shifted the AP restitution curve upwards significantly	APD lengthening	shifted the AP restitution curve downwards	APD shortening
